Reference: the METLIN SMRT retention time set (Domingo-Almenara et al. 2019)

Test: gradient 5% acetonitrile 3 min, to 50% in 2 min, to 85% in 15 min, held 3 min, 100 µL/min
Conditions: column: Zorbax Extend-C18 2.1 x 50 mm; eluents: water / acetonitrile, 0.1% formic acid
Method in brief: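 Pure standards were run in mixtures of ~100 molecules by HPLC coupled to a quadrupole time-of-flight mass spectrometer. The column was a Zorbax Extend-C18 (2.1 × 50 mm, 1.8 μm) at 100 μL/min, with water and acetonitrile each containing 0.1% formic acid, in positive and negative ionization mode. Dead and dwell volumes were 40 μL and 900 μL. Retention time was taken from computationally picked adduct peaks, each manually inspected, with data collected over 3 months.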

Row | RP-LC retention time [s] | Structure (SMILES)
1 | 763 | N#Cc1cccc(NC(=O)C2CCN(S(=O)(=O)c3ccc4c(c3)NC(=O)CO4)CC2)c1
2 | 595 | Cc1nc(C)c(C(=O)NCC2CCCCC(=O)N2)s1 (stereo not given)
3 | 564 | Cn1cnnc1SCCNC(=O)Cc1csc(Nc2ncccn2)n1
4 | 559 | Cc1cnc(-c2ccccc2)n1C1CN(Cc2cccc(C#N)c2)C1
5 | 594 | O=C1C=C(Nc2cccnc2)c2ccccc2C1=O
6 | 1040 | O=S(=O)(c1ccc(F)cc1)N1CCc2nc(-c3ccccc3)ncc2C1
7 | 771 | Cc1csc(-c2ccc(N3CCN(C(=O)c4cccc(C#N)c4)CC3)nc2)n1
8 | 543 | O=C(c1ccc(F)c(F)c1)N1CCN(CCn2cccn2)CC1
9 | 1040 | Cn1c(C(=O)N(Cc2ccccc2)Cc2ccccc2)cc2c(=O)n3ccccc3nc21
10 | 811 | CCCN1CCN(C(=O)c2ccc(CN3CCN(Cc4ccccc4)C(=O)C3=O)cc2)CC1
11 | 649 | COC(=O)c1sc2cccc(F)c2c1S(=O)(=O)N1CCC(C(N)=O)(N2CCCCC2)CC1
12 | 760 | CCC(C)NC(=O)C1COC2(CCN(C(=O)CC(C)(C)C)CC2)N1C(=O)c1ccc(OC)cc1 (stereo not given)
13 | 1270 | CCCN1C(=O)COc2ccc(-c3noc(-c4ccc(F)c(F)c4)n3)cc21
14 | 592 | O=C(Nc1cccc(Nc2ncc(Br)c(NCCc3cnc[nH]3)n2)c1)N1CCCC1
15 | 792 | CCn1cnc(S(=O)(=O)N2CCC(C(=O)Nc3cccc4c3CCCC4)CC2)c1
16 | 984 | Cc1cccc(Oc2coc3cc(OC(=O)c4ccncc4)ccc3c2=O)c1
17 | 587 | Cc1nn(-c2cc(N3CCCC3)ncn2)c(C)c1CCC(=O)N1CCN(c2ccccn2)CC1
18 | 571 | Cc1cc(C)cc(NC(=O)CN2CCC(C(=O)Nc3ccc(C(N)=O)cc3)CC2)c1

Row | RP-LC retention time [s] | Structure (SMILES)
19 | 908 | COC(=O)C1C(=O)C2=C(CC1C)NC(C)=C(C(=O)OC(C)C)C2c1ccccc1OC (stereo not given)
20 | 603 | O=C(c1n[nH]c2ccccc12)N1CCCn2nc(-c3ccncc3)cc2C1
21 | 865 | Cc1cccc(-c2noc(Cn3ccn(-c4ccccc4C)c(=O)c3=O)n2)c1
22 | 800 | O=C(NCc1cccc(Br)c1)C1CCN(C(=O)C2Sc3ccccc3NC2=O)CC1 (stereo not given)
23 | 761 | CCOc1ccc(S(=O)(=O)N2CCC(C(=O)NC)CC2)cc1C
24 | 838 | COc1ccc(S(=O)(=O)N2CCCC(C(=O)NCc3ccccn3)C2)cc1Cl (stereo not given)
25 | 1200 | Cc1ccc(-c2coc(-c3ccc(NC(=O)NCc4cccc(F)c4)cc3)n2)c(C)c1
26 | 807 | COc1ccc(C2C(C(=O)NC3CCCCCC3)CCC(=O)N2c2ccc(OC)cc2)cc1 (stereo not given)
27 | 581 | CN(C)CCN(Cc1ccco1)C(=O)c1c2c(nc3ccccc13)C(=O)N(C1CCCCC1)C2
28 | 692 | O=C(Nc1ccc(NC(=O)N2CCCC(C(=O)NCC3CC3)C2)cc1)NC1CCCC1 (stereo not given)
29 | 782 | Cc1cccc(N(C)C(=O)c2cccc(NC(=O)[C@H]3[C@@H]4C[C@@H]5[C@H]3C(=O)O[C@@H]5C4)c2)c1
30 | 657 | CCCNC(=O)C1CCN(c2ccc(SCC(=O)Nc3ccc(C(C)C)cc3)nn2)CC1
31 | 672 | COc1ccc(Br)c(C(=O)Nc2ccc3c(c2)C(=O)NCC3)c1
32 | 941 | CCOC(=O)c1ccc(NS(=O)(=O)c2ccc(-c3c(C)noc3C)cc2)cc1
33 | 1020 | Cc1ccc(-c2nnc(SCc3noc(CCC(=O)Nc4ccc(F)c(Cl)c4)n3)o2)cc1
34 | 853 | Cc1sc(-c2noc(C3CC3)n2)cc1S(=O)(=O)N1CCC(C(=O)N2CCOCC2)CC1
35 | 738 | CCOc1ccccc1CNC(=O)c1nc(N2CCOCC2)c2ccccc2n1
